Data published in ChEMBL document CHEMBL3045273, “Synthesis, characterization, and pharmacological evaluation of 1-[2-(6-nitro-4-oxo-2-phenyl-4H-quinazolin-3-yl)-ethyl]-3-phenyl ureas” (2013).
Converted amounts (≈) assume the structure as drawn.

Tests used:
[1] = test system: Escherichia coli; assay: Antibacterial activity against Escherichia coli ATCC 25922 assessed as growth inhibition at 70 ug/ml after 24 hr by Kirby-Bauer disk diffusion method; format: functional; conditions: ATCC 25922, 24 h, read-out: DIZ
[2] = test system: Candida albicans; assay: Antifungal activity against Candida albicans ATCC 66027 assessed as growth inhibition at 300 ug/ml after 24 hr by Kirby-Bauer disk diffusion method; format: functional; conditions: ATCC 66027, 24 h, read-out: DIZ
[3] = test system: Bacillus subtilis; assay: Antibacterial activity against Bacillus subtilis ATCC 11774 assessed as growth inhibition at 300 ug/ml after 24 hr by Kirby-Bauer disk diffusion method; format: functional; conditions: ATCC 11774, 24 h, read-out: DIZ
[4] = test system: Pseudomonas aeruginosa; assay: Antibacterial activity against Pseudomonas aeruginosa ATCC 27853 assessed as growth inhibition at 300 ug/ml after 24 hr by Kirby-Bauer disk diffusion method; format: functional; conditions: ATCC 27853, 24 h, read-out: DIZ
[5] = test system: Staphylococcus aureus; assay: Antibacterial activity against Staphylococcus aureus ATCC 25923 assessed as growth inhibition at 300 ug/ml after 24 hr by Kirby-Bauer disk diffusion method; format: functional; conditions: ATCC 25923, 24 h, read-out: DIZ
[6] = test system: Candida albicans; assay: Antifungal activity against Candida albicans ATCC 66027 assessed as growth inhibition at 100 ug/ml after 24 hr by Kirby-Bauer disk diffusion method; format: functional; conditions: ATCC 66027, 24 h, read-out: DIZ
[7] = test system: Bacillus subtilis; assay: Antibacterial activity against Bacillus subtilis ATCC 11774 assessed as growth inhibition at 100 ug/ml after 24 hr by Kirby-Bauer disk diffusion method; format: functional; conditions: ATCC 11774, 24 h, read-out: DIZ
[8] = test system: Staphylococcus aureus; assay: Antibacterial activity against Staphylococcus aureus ATCC 25923 assessed as growth inhibition at 100 ug/ml after 24 hr by Kirby-Bauer disk diffusion method; format: functional; conditions: ATCC 25923, 24 h, read-out: DIZ
[9] = test system: Pseudomonas aeruginosa; assay: Antibacterial activity against Pseudomonas aeruginosa ATCC 27853 assessed as growth inhibition at 100 ug/ml after 24 hr by Kirby-Bauer disk diffusion method; format: functional; conditions: ATCC 27853, 24 h, read-out: DIZ
[10] = test system: Bacillus subtilis; assay: Antibacterial activity against Bacillus subtilis ATCC 11774 assessed as initial concentration required for appearance of zone of inhibition after 24 hr; format: functional
[11] = test system: Candida albicans; assay: Antifungal activity against Candida albicans ATCC 66027 assessed as initial concentration required for appearance of zone of inhibition after 24 hr; format: functional
[12] = test system: Staphylococcus aureus; assay: Antibacterial activity against Staphylococcus aureus ATCC 25923 assessed as initial concentration required for appearance of zone of inhibition after 24 hr; format: functional
[13] = test system: Pseudomonas aeruginosa; assay: Antibacterial activity against Pseudomonas aeruginosa ATCC 27853 assessed as initial concentration required for appearance of zone of inhibition after 24 hr; format: functional
[14] = test system: Escherichia coli; assay: Antibacterial activity against Escherichia coli ATCC 25922 assessed as initial concentration required for appearance of zone of inhibition after 24 hr; format: functional
[15] = test system: Candida albicans; assay: Antifungal activity against Candida albicans ATCC 66027 assessed as growth inhibition after 24 hr by serial broth dilution method; format: functional; conditions: ATCC 66027, 24 h
[16] = test system: Bacillus subtilis; assay: Antibacterial activity against Bacillus subtilis ATCC 11774 assessed as growth inhibition after 24 hr by serial broth dilution method; format: functional; conditions: ATCC 11774, 24 h
[17] = test system: Pseudomonas aeruginosa; assay: Antibacterial activity against Pseudomonas aeruginosa ATCC 27853 assessed as growth inhibition after 24 hr by serial broth dilution method; format: functional; conditions: ATCC 27853, 24 h
[18] = test system: Staphylococcus aureus; assay: Antibacterial activity against Staphylococcus aureus ATCC 25923 assessed as growth inhibition after 24 hr by serial broth dilution method; format: functional; conditions: ATCC 25923, 24 h
[19] = test system: Escherichia coli; assay: Antibacterial activity against Escherichia coli ATCC 25922 assessed as growth inhibition after 24 hr by serial broth dilution method; format: functional; conditions: ATCC 25922, 24 h
[20] = test system: Escherichia coli; assay: microbe, parasite or virus in culture; conditions: ATCC 25922, 24 h, read-out: DIZ
Description: Antibacterial activity against Escherichia coli ATCC 25922 assessed as growth inhibition at 300 ug/ml after 24 hr by Kirby-Bauer disk diffusion method

[21] = test system: Escherichia coli; assay: microbe, parasite or virus in culture; conditions: ATCC 25922, 24 h, read-out: DIZ; remark: listed apart in the source
Description: Antibacterial activity against Escherichia coli ATCC 25922 assessed as growth inhibition at 100 ug/ml after 24 hr by Kirby-Bauer disk diffusion method

[22] = test system: Candida albicans; assay: Antifungal activity against Candida albicans ATCC 66027 assessed as growth inhibition at 20 ug/ml after 24 hr by Kirby-Bauer disk diffusion method; format: functional; conditions: ATCC 66027, 24 h, read-out: DIZ

SMILES	zone of inhibition at 70 µg/mL [1] [mm]	zone of inhibition at 300 µg/mL [2] [mm]	zone of inhibition at 300 µg/mL [3] [mm]	zone of inhibition at 300 µg/mL [4] [mm]	zone of inhibition at 300 µg/mL [5] [mm]	zone of inhibition at 100 µg/mL [6] [mm]	zone of inhibition at 100 µg/mL [7] [mm]	zone of inhibition at 100 µg/mL [8] [mm]	zone of inhibition at 100 µg/mL [9] [mm]	Activity [10] [µg/mL]	Activity [11] [µg/mL]	Activity [12] [µg/mL]	Activity [13] [µg/mL]	Activity [14] [µg/mL]	MIC [15] [µg/mL]	MIC [16] [µg/mL]	MIC [17] [µg/mL]	MIC [18] [µg/mL]	MIC [19] [µg/mL]	zone of inhibition at 300 µg/mL [20] [mm]	further results
O=C(NCCn1c(-c2ccccc2)nc2ccc([N+](=O)[O-])cc2c1=O)Nc1ccccc1Cl	11	20	15	19	14	16	12	11	13	70	40	100	70	70	20 (≈ 43.1 µM)	70 (≈ 151 µM)	100 (≈ 216 µM)	100 (≈ 216 µM)	70 (≈ 151 µM)	18	zone of inhibition at 100 µg/mL [21]: 14 mm
CC1CCC(NC(=O)NCCn2c(-c3ccccc3)nc3ccc([N+](=O)[O-])cc3c2=O)CC1 (stereo not drawn)	11	20	14	21	14	15	11	11	12	100	20	100	70	70	10 (≈ 22.2 µM)	100 (≈ 222 µM)	70 (≈ 156 µM)	100 (≈ 222 µM)	40 (≈ 89 µM)	17	zone of inhibition at 20 µg/mL [22]: 11 mm; zone of inhibition at 100 µg/mL [21]: 13 mm
